# Data from patent US11319322B2, “Substituted aryl ether compound, preparation method thereof, pharmaceutical composition and use thereof” (Xiamen University, priority 2017, dated 2022).
# What was measured:
# CCDC6-RET-BaF3 = target: T1, CCDC6-RET-BaF3 (Homo sapiens, UniProt P07949); test: Growth inhibition of CCDC6-RET-BaF3 cells stably transfected with kinase (MTS); assay type: cell-based; settings: 48 h, read-out: CCDC6-RET (IC50/nM)
# T1 construct: fused on or other part: Q16204 (Coiled-coil domain-containing protein 6)
# Experimental: (§1) Growth inhibitory activity of compounds on cell lines stably transfected with kinase
# (§2) The activity of compounds against kinase RET is evaluated by their effect of inhibiting growth of cell lines stably transfected with kinase CCDC6-RET-BaF3, KIF5B-RET-BaF3, and wild-type BaF3 (Proc. Natl. Acad. Sci. USA., 2006, 103, 3153-8.). The growth of the cell lines stably transfected with kinase CCDC6-RET-BaF3, KIF5B-RET-BaF3 depends on their kinase activity. If a compound can inhibit the activity of the kinase RET per se or the activity of the RET signaling pathway, the compound can inhibit the growth of BaF3 cells stably transfected with kinase. […] Therefore, a larger ratio between IC50 of a compound to wild-type BaF3 and IC50 of the compound to the cell lines stably transfected with kinase CCDC6-RET-BaF3, KIF5B-RET-BaF3 indicates better targeting.
# (§3) The specific test method is given as follows:
# (§4) 1) Medium: DMEM (Dulbecco's modified eagle medium) or RPMI 1640 (containing 10% fetal bovine serum, 100 μg/mL ampicillin, 100 μg/mL streptomycin).
# (§5) 2) Reagents: MTS reaction solution (containing 2 mg/mL of MTS [3-(4,5-dimethylthiazol-2-yl)-5-(3-carboxymethoxyphenyl)-2-(4-sulfophenyl)-2H-tetrazolium, inner Salt]; 100 μg/mL PES (phenazine […])).
# (§6) 3) Compound test: cells stably transfected with kinase (CCDC6-RET-BaF3, KIF5B-RET-BaF3) or wild-type BaF3 cells (2×10^4 cells/well) were incubated into a 96-well culture plate, the volume of cell culture fluid was 90 μL, and then 10 μL of the compound at each gradient concentration was added (the highest concentration was 10 μM, which was diluted stepwise by ⅓, and 8 concentration points were set in total; the system contained 0.1% DMSO (dimethyl sulfoxide)). The cell plate with uniformly mixed compound was cultured in a cell culture incubator (37° C.; 5% CO2) for 48 h, then 20 μL of MTS reaction solution was added, uniformly mixed and incubated in the cell culture incubator (37° C.; 5% CO2) for 1-4 hr, OD values at 490 nm were measured by a microplate reader (VARIOSKAN FLASH, Thermo). Three parallels were set in each group of experiments, with 0.1% (a final concentration) DMSO as a negative control, and a medium without cells or compounds as a blank control. The cell growth inhibition rate was calculated by the following formula: Cell growth inhibition rate %=1−(ODexperimental group−ODblank group)/(ODnegative group−ODblank group)×100%
# (§7) 4) IC50 calculation: The semi-inhibitory concentration of the compound acting on cell growth was calculated using GradPad Prism 5 software according to the measured cell growth inhibition rate.
# KIF5B-RET-BaF3 = target: T2, KIF5B-RET-BaF3 (Homo sapiens, UniProt P07949); test: Growth inhibition of KIF5B-RET-BaF3 cells stably transfected with kinase (MTS); assay type: cell-based; settings: 48 h, read-out: KIF5B-RET (IC50/nM)
# T2 construct: fused on or other part: P33176 (Kinesin-1 heavy chain)
# Experimental: as §1, §2, §3, §4, §5, §6, §7
# T1 sequence (P07949 whole entry, change not shown, the tested form may be a part): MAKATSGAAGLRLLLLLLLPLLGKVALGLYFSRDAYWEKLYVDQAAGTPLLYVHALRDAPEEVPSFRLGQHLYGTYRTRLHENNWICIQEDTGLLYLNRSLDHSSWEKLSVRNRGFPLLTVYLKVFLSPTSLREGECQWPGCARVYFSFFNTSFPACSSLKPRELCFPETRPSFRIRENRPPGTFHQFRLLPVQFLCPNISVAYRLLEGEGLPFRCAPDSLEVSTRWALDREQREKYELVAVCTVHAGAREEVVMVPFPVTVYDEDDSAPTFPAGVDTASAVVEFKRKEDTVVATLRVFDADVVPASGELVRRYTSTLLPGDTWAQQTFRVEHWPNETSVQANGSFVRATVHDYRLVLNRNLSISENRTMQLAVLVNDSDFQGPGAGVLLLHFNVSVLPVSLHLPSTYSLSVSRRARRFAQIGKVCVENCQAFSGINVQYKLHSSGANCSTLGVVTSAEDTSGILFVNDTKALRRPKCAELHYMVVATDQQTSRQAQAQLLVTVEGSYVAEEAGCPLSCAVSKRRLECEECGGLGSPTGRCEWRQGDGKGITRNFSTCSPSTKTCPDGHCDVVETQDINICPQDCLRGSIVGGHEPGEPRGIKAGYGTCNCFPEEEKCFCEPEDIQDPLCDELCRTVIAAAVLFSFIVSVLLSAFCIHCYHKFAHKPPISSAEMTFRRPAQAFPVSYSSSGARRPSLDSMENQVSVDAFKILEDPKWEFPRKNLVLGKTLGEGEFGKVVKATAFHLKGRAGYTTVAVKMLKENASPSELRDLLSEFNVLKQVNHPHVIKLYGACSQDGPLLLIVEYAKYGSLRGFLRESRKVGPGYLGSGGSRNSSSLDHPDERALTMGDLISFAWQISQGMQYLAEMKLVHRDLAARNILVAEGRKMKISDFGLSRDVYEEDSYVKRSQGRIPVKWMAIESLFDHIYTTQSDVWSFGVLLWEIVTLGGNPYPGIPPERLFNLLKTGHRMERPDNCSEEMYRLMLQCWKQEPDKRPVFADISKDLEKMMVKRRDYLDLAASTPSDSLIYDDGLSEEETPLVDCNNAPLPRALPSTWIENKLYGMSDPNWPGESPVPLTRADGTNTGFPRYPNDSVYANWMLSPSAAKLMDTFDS
# T2 sequence (P07949 whole entry, change not shown, the tested form may be a part): as above
Compound,GI50 (CCDC6-RET-BaF3) [nM],GI50 (KIF5B-RET-BaF3) [nM]
CN1CCN(Cc2cc(NC(=O)c3cccc(Oc4nc(-c5cccnc5)nc5ccn(C)c45)c3)cc(C(F)(F)F)c2)CC1 [III-p-3],4530,3380
CCC(=O)NC1CCN(c2ccc(NC(=O)c3ccc(C)c(Oc4nc(-c5ccncc5)nc5ccn(C)c45)c3)cc2C(F)(F)F)CC1 [III-v-8],10900,4340
CC(=O)NC1CCN(c2ccc(NC(=O)c3ccc(C)c(Oc4nc(-c5ccncc5)nc5ccn(C)c45)c3)cc2C(F)(F)F)CC1 [III-v-9],4210,1750
CCS(=O)(=O)NC1CCN(c2ccc(NC(=O)c3ccc(C)c(Oc4nc(-c5ccncc5)nc5ccn(C)c45)c3)cc2C(F)(F)F)CC1 [III-v-11],3330,1460
CCC(=O)NCC1CCN(c2ccc(NC(=O)c3ccc(C)c(Oc4nc(-c5cccnc5)nc5cc[nH]c45)c3)cc2C(F)(F)F)CC1 [III-v-12],149,191
Cc1ccc(NC(=O)c2cccc(C(F)(F)F)c2)cc1Oc1nc(-c2ccncc2)nc2nn(C)cc12 [IV-b-2],5870,4170
Cc1ccc(Oc2nc(-c3ccncc3)nc3nn(C)cc23)cc1NC(=O)c1cccc(C(F)(F)F)c1 [IV-c-2],1680,2840
Cc1ccc(Oc2nc(-c3ccccc3)nc3nn(C)cc23)cc1C(=O)Nc1ccc(CN2CCN(C)CC2)c(C(F)(F)F)c1 [IV-n-3],4150,3540
Cc1ccc(Oc2nc(-c3cccc(Cl)c3)nc3nn(C)cc23)cc1C(=O)Nc1ccc(CN2CCN(C)CC2)c(C(F)(F)F)c1 [IV-n-4],3900,1710
Cc1ccc(Oc2nc(-c3ccc(Cl)cc3)nc3nn(C)cc23)cc1C(=O)Nc1ccc(CN2CCN(C)CC2)c(C(F)(F)F)c1 [IV-n-5],2960,2320
Cc1ccc(Oc2nc(-c3cccc(O)c3)nc3nn(C)cc23)cc1C(=O)Nc1ccc(CN2CCN(C)CC2)c(C(F)(F)F)c1 [IV-n-6],4310,4230
Cc1ccc(Oc2nc(-c3ccc(O)cc3)nc3nn(C)cc23)cc1C(=O)Nc1ccc(CN2CCN(C)CC2)c(C(F)(F)F)c1 [IV-n-7],2810,3940
Cc1ccc(Oc2nc(-c3cccc(N)c3)nc3nn(C)cc23)cc1C(=O)Nc1ccc(CN2CCN(C)CC2)c(C(F)(F)F)c1 [IV-n-8],2090,1620
Cc1ccc(Oc2nc(-c3ccc(N)cc3)nc3nn(C)cc23)cc1C(=O)Nc1ccc(CN2CCN(C)CC2)c(C(F)(F)F)c1 [IV-n-9],1830,1570
Cc1ccc(Oc2nc(-c3ccoc3)nc3nn(C)cc23)cc1C(=O)Nc1ccc(CN2CCN(C)CC2)c(C(F)(F)F)c1 [IV-n-10],2160,1840
Cc1ccc(Oc2nc(-c3ccsc3)nc3nn(C)cc23)cc1C(=O)Nc1ccc(CN2CCN(C)CC2)c(C(F)(F)F)c1 [IV-n-11],5220,4210
CN1CCN(Cc2ccc(NC(=O)c3cc(Oc4nc(-c5cccnc5)nc5nn(C)cc45)ccc3Cl)cc2C(F)(F)F)CC1 [IV-o-1],1980,1720
CN1CCN(Cc2ccc(NC(=O)c3cc(Oc4nc(-c5ccccc5)nc5nn(C)cc45)ccc3Cl)cc2C(F)(F)F)CC1 [IV-o-3],4310,4180
CN1CCN(Cc2ccc(NC(=O)c3cc(Oc4nc(-c5cccc(Cl)c5)nc5nn(C)cc45)ccc3Cl)cc2C(F)(F)F)CC1 [IV-o-4],4280,3110
CN1CCN(Cc2ccc(NC(=O)c3cc(Oc4nc(-c5ccc(Cl)cc5)nc5nn(C)cc45)ccc3Cl)cc2C(F)(F)F)CC1 [IV-o-5],4090,3390
CN1CCN(Cc2ccc(NC(=O)c3cc(Oc4nc(-c5cccc(O)c5)nc5nn(C)cc45)ccc3Cl)cc2C(F)(F)F)CC1 [IV-o-6],4020,3400
CN1CCN(Cc2ccc(NC(=O)c3cc(Oc4nc(-c5ccc(O)cc5)nc5nn(C)cc45)ccc3Cl)cc2C(F)(F)F)CC1 [IV-o-7],1510,1610

# The remaining lines, values ahead:
GI50 (CCDC6-RET-BaF3) [nM],GI50 (KIF5B-RET-BaF3) [nM],Compound
4110,2850,Cc1ccc(NC(=O)c2ccc(CN3CCN(C)CC3)c(C(F)(F)F)c2)cc1Oc1nc(-c2cccnc2)nc2cc[nH]c12 [III-i-1]
1400,774,Cc1ccc(NC(=O)c2ccc(CN3CCN(C)CC3)c(C(F)(F)F)c2)cc1Oc1nc(-c2ccncc2)nc2cc[nH]c12 [III-i-2]
4340,3630,Cc1ccc(NC(=O)c2ccc(CN3CCN(C)CC3)c(C(F)(F)F)c2)cc1Oc1nc(-c2cccnc2)nc2ccn(C)c12 [III-i-3]
2020,1330,Cc1ccc(NC(=O)c2ccc(CN3CCN(C)CC3)c(C(F)(F)F)c2)cc1Oc1nc(-c2ccncc2)nc2ccn(C)c12 [III-i-4]
5940,3250,Cc1ccc(Oc2nc(-c3cccnc3)nc3cc[nH]c23)cc1NC(=O)c1ccc(CN2CCN(C)CC2)c(C(F)(F)F)c1 [III-j-1]
6.06,2.32,Cc1ccc(Oc2nc(-c3ccncc3)nc3cc[nH]c23)cc1NC(=O)c1ccc(CN2CCN(C)CC2)c(C(F)(F)F)c1 [III-j-2]
4260,3100,Cc1ccc(Oc2nc(-c3cccnc3)nc3ccn(C)c23)cc1NC(=O)c1ccc(CN2CCN(C)CC2)c(C(F)(F)F)c1 [III-j-5]
28,13.2,Cc1ccc(Oc2nc(-c3ccncc3)nc3ccn(C)c23)cc1NC(=O)c1ccc(CN2CCN(C)CC2)c(C(F)(F)F)c1 [III-j-6]
2200,2380,Cc1ccc(-c2nc(Oc3ccc(Cl)c(NC(=O)c4ccc(CN5CCN(C)CC5)c(C(F)(F)F)c4)c3)c3[nH]ccc3n2)cc1 [III-k-15]
22.7,5.71,CN1CCN(Cc2ccc(NC(=O)c3cccc(Oc4nc(-c5ccncc5)nc5cc[nH]c45)c3)cc2C(F)(F)F)CC1 [III-l-2]
1400,1540,CN1CCN(Cc2ccc(NC(=O)c3cccc(Oc4nc(-c5cccnc5)nc5ccn(C)c45)c3)cc2C(F)(F)F)CC1 [III-l-3]
18.7,11.3,CN1CCN(Cc2ccc(NC(=O)c3cccc(Oc4nc(-c5ccncc5)nc5ccn(C)c45)c3)cc2C(F)(F)F)CC1 [III-l-4]
4500,2100,Cc1ccc(C(=O)Nc2ccc(CN3CCN(C)CC3)c(C(F)(F)F)c2)cc1Oc1nc(-c2cccnc2)nc2cc[nH]c12 [III-m-1]
3630,1310,Cc1ccc(C(=O)Nc2ccc(CN3CCN(C)CC3)c(C(F)(F)F)c2)cc1Oc1nc(-c2ccncc2)nc2cc[nH]c12 [III-m-2]
3150,2760,Cc1ccc(C(=O)Nc2ccc(CN3CCN(C)CC3)c(C(F)(F)F)c2)cc1Oc1nc(-c2ccoc2)nc2ccn(C)c12 [III-m-17]
53.7,21,Cc1ccc(Oc2nc(-c3ccncc3)nc3cc[nH]c23)cc1C(=O)Nc1ccc(CN2CCN(C)CC2)c(C(F)(F)F)c1 [III-n-2]
43.1,17.2,Cc1ccc(Oc2nc(-c3ccncc3)nc3ccn(C)c23)cc1C(=O)Nc1ccc(CN2CCN(C)CC2)c(C(F)(F)F)c1 [III-n-4]
4450,4770,Cc1ccc(Oc2nc(-c3cccnc3)nc3cc[nH]c23)cc1C(=O)Nc1cc(CN2CCN(C)CC2)cc(C(F)(F)F)c1 [III-r-1]
88.6,12.1,CN1CCN(Cc2ccc(NC(=O)c3cc(Oc4nc(-c5ccncc5)nc5nn(C)cc45)ccc3Cl)cc2C(F)(F)F)CC1 [IV-o-2]
